Results on six compounds are retold here after ChEMBL document CHEMBL1914379, “Challenges of drug discovery in novel target space. The discovery and evaluation of PF-3893787: a novel histamine H4 receptor antagonist” (Bioorg Med Chem Lett, 2011).

The nature of series [1]: Lipophilicity, log D of the compound. Particulars: octanol/water. The format is physicochemical.
A short description of series [2]: Volume of distribution in rat blood at 1 mg/kg, iv and 1 mg/kg, po. The format is ADME, organism-based.
Series [3] concerns Rattus norvegicus. As to the kind of experiment: Toxicity in po dosed rat assessed as decrease in erythropoiesis for 4 days. The format is organism-based, Erythrocyte. The note with it: in vivo, 96 h.
The nature of series [4]: Oral bioavailability in rat at 1 mg/kg. In kind it is ADME, organism-based. The note with it: in vivo.
The nature of series [5]: Half life in rat at 1 mg/kg, iv and 1 mg/kg, po. The note with it: in vivo. In kind it is ADME, organism-based.
Series [6] in a line: Blood clearance in dog at 3 mg/kg, iv. The format is ADME, organism-based, Canis lupus familiaris. The arrangement: dose 3 mg/kg, route intravenous.
Series [7] can be described thus: Volume of distribution in dog blood at 3 mg/kg, iv. In kind it is ADME, organism-based, Canis lupus familiaris. The arrangement: dose 3 mg/kg, route intravenous.
A short description of series [8]: Metabolic stability in human liver microsomes. In kind it is ADME, Microsome. Particulars: read-out: Stability.
In series [9] the target is T1, Histamine H4 receptor (Homo sapiens, UniProt Q9H3N8). Nature of the series: Displacement of [3H]-histamine from full length human H4R expressed in HEK293 cells. The format is cell-based.
In series [10] the target is T1, Histamine H4 receptor. As to the kind of experiment: Antagonist activity at full length human H4R expressed in HEK293 cells assessed as reversal of forskolin-induced cAMP production by CRE-beta-lactamase reporter gene assay. The format is functional, cell-based.
The subject of series [11] is Rattus norvegicus. As to the kind of experiment: Toxicity in po dosed rat assessed as lymphoid depletion from thymus for 4 days. The format is organism-based. Particulars: in vivo, 96 h.
Series [12] concerns Canis familiaris. Nature of the series: Toxicity in dog assessed as adverse events dosed orally for 7 days. In kind it is organism-based, Canis lupus familiaris. The note with it: in vivo, po, 168 h.
The test system of series [13] is Rattus norvegicus. As to the kind of experiment: Toxicity in rat assessed as vacuolation at high dose, po for 7 days. The format is organism-based. Particulars: in vivo, 168 h.
Series [14] concerns Rattus norvegicus. Nature of the series: Toxicity in po dosed rat assessed as decrease in reticulocyte counts for 4 days. The note with it: in vivo, 96 h. In kind it is organism-based.
Series [15] relates to Rattus norvegicus. As to the kind of experiment: Toxicity in po dosed rat assessed as lymphoid depletion from gut for 4 days. In kind it is organism-based. The note with it: in vivo, 96 h.
A short description of series [16]: Metabolic stability in rat liver microsomes. The format is ADME, Microsome. The note with it: read-out: Stability.
Series [17] in a line: Half life in dog at 3 mg/kg, iv. The format is ADME, organism-based, Canis lupus familiaris. The arrangement: dose 3 mg/kg, route intravenous. The note with it: in vivo.
A short description of series [18]: Blood clearance in rat at 1 mg/kg, iv and 1 mg/kg, po. In kind it is ADME, organism-based.
In series [19] the test system is Rattus norvegicus. As to the kind of experiment: Toxicity in po dosed rat assessed as lymphoid depletion from spleen for 4 days. In kind it is organism-based. The note with it: in vivo, 96 h.
The test system of series [20] is HEK-293T. Nature of the series: Agonist activity at macaque H4R expressed in HEK293T cells assessed as reversal of forskolin-induced cAMP production by CRE-beta-lactamase reporter gene assay. The note with it: Macaca mulatta. In kind it is functional, cell-based.
The nature of series [21]: Displacement of [3H]-histamine from dog H4R expressed in HEK293T cells. In kind it is cell-based, Canis lupus familiaris. The note with it: hek-293t.
Series [22] addresses T2, Histamine H4 receptor (Cavia porcellus) (UniProt Q91ZY3).
T2 sequence (whole entry): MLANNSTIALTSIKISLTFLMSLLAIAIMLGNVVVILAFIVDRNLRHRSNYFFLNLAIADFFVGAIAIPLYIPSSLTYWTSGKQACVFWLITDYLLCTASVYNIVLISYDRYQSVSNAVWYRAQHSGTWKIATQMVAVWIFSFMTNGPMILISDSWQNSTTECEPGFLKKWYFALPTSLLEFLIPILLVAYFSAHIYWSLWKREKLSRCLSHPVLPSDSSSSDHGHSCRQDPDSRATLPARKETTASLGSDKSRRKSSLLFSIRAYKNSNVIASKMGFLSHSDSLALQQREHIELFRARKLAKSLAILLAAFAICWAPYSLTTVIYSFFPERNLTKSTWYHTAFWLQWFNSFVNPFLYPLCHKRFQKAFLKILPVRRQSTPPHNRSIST
As to the kind of experiment: Agonist activity at guinea pig H4R expressed in HEK293T cells assessed as reversal of forskolin-induced cAMP production by CRE-beta-lactamase reporter gene assay. The format is functional, cell-based. Particulars: HEK-293T.

In series [23] the test system is HEK-293T. As to the kind of experiment: Agonist activity at dog H4R expressed in HEK293T cells assessed as reversal of forskolin-induced cAMP production by CRE-beta-lactamase reporter gene assay. The note with it: Canis lupus familiaris. The format is functional, cell-based.
Series [24] is described as follows: Displacement of [3H]-histamine from macaque H4R expressed in HEK293T cells. In kind it is cell-based, Macaca mulatta. The note with it: hek-293t.
Series [25] concerns the target T1, Histamine H4 receptor. As to the kind of experiment: Antagonist activity at full length human H4R expressed in HEK293 cells assessed as inhibition of forskolin-induced cAMP responsive element-beta-lactamase activity at 15 uM. The format is functional, cell-based.
In series [26] the test system is Rattus norvegicus. As to the kind of experiment: Toxicity in rat assessed as bone marrow cytology changes at high dose, po for 7 days. The note with it: in vivo, 168 h. In kind it is organism-based.
In series [27] the test system is Rattus norvegicus. Nature of the series: Induction of pro-inflammatory response in rat dosed orally for 4 days. In kind it is functional, organism-based.
The nature of series [28]: Clearance in rat at 1 mg/kg, iv and 1 mg/kg, po. Particulars: in vivo. The format is ADME, organism-based.
Series [29] is described as follows: Volume of distribution in rat at 1 mg/kg, iv and 1 mg/kg, po. The format is ADME, organism-based. The note with it: in vivo.

The structures appear in SMILES notation. Active and inactive are the calls of the source. No cut-off for these calls is given here.

T1 sequence (Q9H3N8 whole entry): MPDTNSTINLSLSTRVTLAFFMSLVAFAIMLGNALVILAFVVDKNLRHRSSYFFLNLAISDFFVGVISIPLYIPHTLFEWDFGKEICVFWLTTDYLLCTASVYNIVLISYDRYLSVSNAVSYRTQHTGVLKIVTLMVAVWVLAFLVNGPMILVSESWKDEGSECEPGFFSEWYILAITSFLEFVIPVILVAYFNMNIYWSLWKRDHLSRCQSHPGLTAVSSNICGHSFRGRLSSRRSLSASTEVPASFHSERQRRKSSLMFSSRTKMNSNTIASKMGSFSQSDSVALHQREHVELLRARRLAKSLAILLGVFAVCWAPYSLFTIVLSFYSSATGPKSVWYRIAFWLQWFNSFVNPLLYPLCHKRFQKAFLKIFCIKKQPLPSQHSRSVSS

In series [1], `CNC1CN(c2cc(NCC(C)(C)C)nc(N)n2)C1` yielded a logD of 0.7. Also, the Vd worked out at 49 L/kg in series [2] and 48 L/kg in series [7]. Moreover, the Activity result in series [3] is listed as “Non-toxic”; in series [11], “Non-toxic”; in series [12], “Non-toxic”; in series [13], “Toxic”; in series [14] it was “Non-toxic”; in series [15], “Non-toxic”. Further, the Activity entry in [19] is “Non-toxic”. Besides, in [4], the bioavailability was determined as 57%. The values for the half-life in series [5] and in series [17] were 6.9 h and 19 h, respectively. The results for the clearance in series [6] and in series [18] were 30 mL/min/kg and 77 mL/min/kg, respectively. Also, the microsomal CLint in series [8] is < 7 µL/min/mg; in series [16], < 8.5 µL/min/mg. For the same compound, the inhibition constant (Ki) came out at 1.7 nM in series [9] and 0.034 nM in series [10].

In [1], `CN1CCN(C(=O)c2cc3cc(Cl)ccc3[nH]2)CC1` [JNJ-7777120] came in with a logD of 2.6. The outcome in series [20], in series [22] and in series [23] was Active. In addition, the pKi is 6.89 in series [21] and 7.17 in series [24]. For the same compound, the microsomal CLint in series [8] was 28 µL/min/mg; in [16], 61 µL/min/mg.

`CC(C)(C)CCNc1cc(NC2CCN(Cc3ccc(CO)o3)C2)ncn1` (racemic): the inhibition in series [25] is 73%.

For `CNC1CN(c2cc(NCCC(C)(C)C)nc(N)n2)C1`, the Activity result in series [3], in series [11], in series [12], in series [14], in series [15] and in series [19] was “Non-toxic” in each case. In addition, the Ki in [10] is 1.5 nM. The microsomal CLint in series [16] amounted to 33 µL/min/mg.

Take `CNC1CN(c2cc(NCc3cccc(F)c3)nc(N)n2)C1`: the inhibition constant (Ki) in series [9] is 18 nM; in [10], 13 nM. Further, the Activity result in [13] and in series [26] was “Toxic” throughout. Also, the microsomal CLint in series [16] is < 8.5 µL/min/mg.

`CN1C[C@@H]2CN(C(=O)c3nc4cc(F)c(F)cc4[nH]3)C[C@@H]2C1`: in series [27], the outcome was Active. Besides, the Activity entry in series [3] is “Toxic”; in [11] it was “Dose-dependent effect”; in [14] it was “Toxic”; in [15], “Dose-dependent effect”; in series [19] it was “Dose-dependent effect”. In series [28], this compound came in with a clearance of 59 mL/min/kg. Moreover, the bioavailability in series [4] stood at 50%. In series [5], this compound had a half-life of 0.8 h. Moreover, the microsomal CLint is < 7 µL/min/mg in [8] and 10 µL/min/mg in [16]. Also, the Ki in series [9] amounted to 128 nM; in series [10], 53 nM. This compound also showed a Vd in [29] of 4.1 L/kg.
